Experimental data taken from patent publication EP2905024A1 (Institut Quimic De Sarriá Cets, Fundació Privada, priority 2014, dated 2015).

Legend:
[1] = tested on: subgenomic HCV genotype 1b replicon, I389/NS3-3'/ LucUbiNeo-ET; experiment: in vitro antiviral activity: luciferase assay in LucUbiNeo-ET HCV replicon cells; assay type: cell-based; conditions: Hepatitis C virus, 48 h, 2 days of incubation, luciferase readout, mean of duplicates
Excerpt: (§1) To analyze the antiviral activity of the compounds, we used a stable cell line, LucUbiNeo-ET, that contains a subgenomic HCV genotype 1b replicon, I389/NS3-3'/ LucUbiNeo-ET, that express luciferase constitutively (Krieger et al, JVI 2001; 75:4614; Frese et al., JGV 2003; 84: 1253-1259). To evaluate the cellular toxicity, we use other cell line, Huh-7/Lunet (Friebe et al., JVI 2005; 79: 380-392), that originally carried a selectable luciferase HCV 1b replicon and was cured by treatment with an HCV-specific inhibitor. These cells are characterized by high permissiveness for HCV RNA replication. LucUbiNeo-ET cell line was cultured at 37°C in a humidified atmosphere with 5% CO2 in Dulbecco's modified Eagle medium (D-MEM) supplemented with high glucose concentration (4.5g/l) (Invitrogen), 10% (vol/vol) heat-inactivated fetal bovine serum (Hyclone, Cultek), 2mM L-Glutamine (Sigma-aldrich), 1mM sodium pyruvate (Sigma-aldrich), 1% MEM NEEA (Sigma-aldrich), and 0.5 mg/ml of Geneticin (G418) (Gibco, Invitrogen). Cured or Huh-7/Lunet cell line was maintained at the same conditions as described above without the addition of Geneticin.
(§2) Antiviral activity was carried out in white-clear bottom 96-well plates, and cytotoxicity assays were performed in clear 96-well plates. Cells were seeded at a density of 10^4/well in 100ul D-MEM without selection of antibiotics. After 24h, nine fivefold serial dilution of compounds, with 3 replicates at each dilution, were prepared in D-MEM and added to the appropriate wells, yielding concentrations of 125 to 0,00032 ug/ml in a final volume of 100 ul of D-MEM. Following 2 days of incubation, we determined the antiviral activity (EC50) by quantifying the luciferase with the Luciferase Bright Glo assay (Promega). Briefly, LucUbiNeo-ET cells were harvested with the addition of 100 ul of luciferase per well, and after 2 minutes of shaking, the light was read in a Luminometer Fluoroskan Ascent FL. Toxicity (CC50) was analysed in the Lunet/HuH7 cells by the addition of 10 ul of MTT (3-(4,5-dimethylthiazol-2-yl)-2,5-diphenyltetrazolium bromide) per well. After 4h of incubation at 37°C in a humidified atmosphere with 5% CO2, the amount of formazan produced was quantified spectrophotometrically at 550/620 nm [C. Pannecouque et al, Nature protocol 2008; 3 (3): 427-434]. The EC50 and CC50 values were calculated for each compound. These assays were done in duplicate and the results shown in Table 1 represent the mean value of these duplicates.

cytotoxicity assay (MTT) = assay type: cell-based; conditions: human, Lunet/HuH7 cells, 2 days of incubation, mean of duplicates; for CC50 at 48 h: huh-7/lunet cells; for CC50 at 2 days: Huh-7/Lunet cells (cured HCV replicon cells)
Excerpt: as §1, §2

| Compound | EC50 [1] [µM] | CC50 at 48 h (cytotoxicity assay (MTT)) [µM] | CC50 at 2 days (cytotoxicity assay (MTT)) [µM] |
| --- | --- | --- | --- |
| O=C1Nc2nc(Oc3ccccc3)nc(On3nnc4ccccc43)c2CC1c1ccc(F)cc1 (stereo not drawn) [Example 3, 4-((1H-benzo[d][1,2,3]triazol-1-yl)oxy)-6-(4-fluorophenyl)-2-phenoxy-3,4,5,6-tetrahydropyrido[2,3-d]pyrimidine-7(8H)-one] | 5 to 22 | ≥ 25 | – |
| O=C1Nc2nc(Nc3ccccc3)nc(On3nnc4ccccc43)c2CC1c1ccc(F)cc1 (stereo not drawn) [Example 4] | 1 to 5 | 10 to 25 | – |
| O=C1Nc2nc(Nc3ccccc3)nc(On3nnc4ccccc43)c2CC1c1ccc(Cl)cc1Cl (stereo not drawn) [Example 6, 4-((1H-benzo[d][1,2,3]triazol-1-yl)oxy)-6-(2,4-dichlorophenyl)-2-(phenylamino)-5,6-dihydropyrido[2,3-d]pyrimidine-7(8H)-one] | 1 to 5 | – | < 10 |
| CCCOCCNc1nc(Nc2ccccc2)nc2c1CC(c1c(Cl)cccc1Cl)C(=O)N2 (stereo not drawn) [Example 11, 6-(2,6-dichlorophenyl)-2-(phenylamino)-4-((2-propoxyethyl)amino)-5,6-dihydropyrido[2,3-d]pyrimidine-7(8H)-one] | 5 to 22 | – | ≥ 25 |
| COCCOc1nc(N)nc2c1CC(c1c(Cl)cccc1Cl)C(=O)N2 (stereo not drawn) [Example 13, 2-amino-6-(2,6-dichlorophenyl)-4-(2-methoxyethoxy)-5,6-dihydropyrido[2,3-d]pyrimidine-7(8H)-one] | 5 to 22 | – | ≥ 25 |
| O=C1Nc2nc(Nc3ccccc3)[nH]c(=O)c2CC1c1ccccc1 (stereo not drawn) [Example 18, 6-phenyl-2-(phenylamino)-5,6-dihydropyrido[2,3-d]pyrimidine-4,7(3H,8H)-dione] | 1 to 5 | – | ≥ 25 |
| O=C1Nc2nc(Nc3ccccc3)[nH]c(=O)c2CC1c1cccc2ccccc12 (stereo not drawn) [Example 20, 6-(naphthalen-1-yl)-2-(phenylamino)-5,6-dihydropyrido[2,3-d]pyrimidine-4,7(3H,8H)-dione] | 5 to 22 | – | 10 to 25 |
| O=C1Nc2nc(NCc3ccccc3)[nH]c(=O)c2CC1c1c(Cl)cccc1Cl (stereo not drawn) [Example 22, 2-(benzylamino)-6-(2,6-dichlorophenyl)-5,6-dihydropyrido [2,3-d]pyrimidine-4,7(3H,8H)-dione] | 5 to 22 | – | ≥ 25 |
| CCCOCCNc1nc(N)nc2[nH]c(=O)c(-c3ccc(F)cc3)cc12 [Example 24, 2-amino-6-(4-fluorophenyl)-4-((2-propoxyethyl)amino) pyrido[2,3-d]pyrimidine-7(8H)-one] | 1 to 5 | – | ≥ 25 |
| CCCCCNc1nc(N)nc2[nH]c(=O)c(-c3c(Cl)cccc3Cl)cc12 [Example 28, 2-amino-6-(2,6-dichlorophenyl)-4-(pentylamino)pyrido[2,3-d]pyrimidine-7(8H)-one] | 1 to 5 | – | 10 to 25 |
| O=c1[nH]c2nc(Nc3ccccc3)[nH]c(=O)c2cc1-c1ccc(F)cc1 [Example 29, 6-(4-fluorophenyl)-2-(phenylamino)pyrido[2,3-d]pyrimidine-4,7(3H,8H)-dione] | < 1 | – | 10 to 25 |
| O=c1[nH]c2nc(Nc3ccccc3)[nH]c(=O)c2cc1-c1ccccc1 [Example 30, 6-phenyl-2-(phenylamino)pyrido[2,3-d]pyrimidine-4,7(3H,8H)-dione] | 5 to 22 | – | ≥ 25 |
| COc1ccc(Nc2nc3[nH]c(=O)c(-c4ccc(F)cc4)cc3c(=O)[nH]2)cc1 [Example 31, 6-(4-fluorophenyl)-2-((4-methoxyphenyl)amino)pyrido[2,3-d]pyrimidine-4,7(3H,8H)-dione] | 5 to 22 | – | ≥ 25 |
| CCCOCCNc1nc(Oc2ccccc2)nc2[nH]c(=O)c(-c3ccc(F)cc3)cc12 [Example 32, 6-(4-fluorophenyl)-2-phenoxy-4-((2-propoxyethyl)amino) pyrido[2,3-d]pyrimidine-7(8H)-one] | 1 to 5 | – | ≥ 25 |
| Nc1nc(Nc2ccccc2)nc2[nH]c(=O)c(-c3c(F)cccc3F)cc12 [Example 34, 4-amino-6-(2,6-difluorophenyl)-2-(phenylamino)pyrido[2,3-d]pyrimidine-7(8H)-one] | 5 to 22 | – | < 10 |
| Nc1nc(Nc2ccccc2)nc2[nH]c(=O)c(-c3c(Br)cccc3Br)cc12 [Example 36, 4-amino-6-(2,6-dibromophenyl)-2-(phenylamino)pyrido[2,3-d]pyrimidine-7(8H)-one] | 5 to 22 | – | ≥ 25 |
| Nc1nc(Nc2ccccc2)nc2[nH]c(=O)c(-c3ccccc3)cc12 [Example 37, 4-amino-6-phenyl-2-(phenylamino)pyrido[2,3-d]pyrimidine-7(8H)-one] | < 1 | – | 10 to 25 |
| CCCOCCNc1nc(N)nc2c1cc(-c1ccc(F)cc1)c(=O)n2C [Example 41, 2-amino-6-(4-fluorophenyl)-8-methyl-4-((2-propoxyethyl)amino)pyrido[2,3-d]pyrimidine-7(8H)-one] | 1 to 5 | – | ≥ 25 |
| CCCCCNc1nc(N)nc2c1cc(-c1ccc(F)cc1)c(=O)n2C [Example 42, 2-amino-6-(4-fluorophenyl)-8-methyl-4-(pentylamino) pyrido[2,3-d]pyrimidine-7(8H)-one] | 5 to 22 | – | 10 to 25 |
| Cn1c(=O)c(-c2ccc(F)cc2)cc2c(N3CCCC3)nc(N)nc21 [Example 43] | 5 to 22 | ≥ 25 | – |
| CCCOCCOc1nc(N)nc2c1cc(-c1c(Cl)cccc1Cl)c(=O)n2C [Example 44, 2-amino-6-(2,6-dichlorophenyl)-8-methyl-4-(2-propoxyethoxy)pyrido[2,3-d]pyrimidine-7(8H)-one] | 5 to 22 | – | ≥ 25 |
| COc1nc(N)nc2c1CC(c1c(Cl)cccc1Cl)C(=O)N2C (stereo not drawn) [Example 45, 2-amino-6-(2,6-dichlorophenyl)-4-methoxy-8-methyl-5,6-dihydropyrido[2,3-d]pyrimidine-7(8H)-one] | 5 to 22 | – | ≥ 25 |
| CCCOCCNc1nc(Nc2ccccc2)nc2c1cc(-c1c(Cl)cccc1Cl)c(=O)n2C [Example 46, 6-(2,6-dichlorophenyl)-8-methyl-2-(phenylamino)-4-((2-propoxyethyl)amino)pyrido[2,3-d]pyrimidine-7(8H)-one] | 5 to 22 | – | ≥ 25 |
| Cn1c(=O)c(-c2c(F)cccc2F)cc2c(N)nc(Nc3ccccc3)nc21 [Example 47, 4-amino-6-(2,6-difluorophenyl)-8-methyl-2-(phenylamino)pyrido[2,3-d]pyrimidine-7(8H)-one] | < 1 | – | 10 to 25 |
| Cn1c(=O)c(-c2c(Cl)cccc2Cl)cc2c(N)nc(Nc3ccccc3)nc21 [Example 48, 4-amino-6-(2,6-dichlorophenyl)-8-methyl-2-(phenylamino)pyrido[2,3-d]pyrimidine-7(8H)-one] | < 1 | – | < 10 |
| Cn1c(=O)c(-c2c(Br)cccc2Br)cc2c(N)nc(Nc3ccccc3)nc21 [Example 49, 4-amino-6-(2,6-bromophenyl)-8-methyl-2-(phenylamino)pyrido[2,3-d]pyrimidine-7(8H)-one] | < 1 | – | < 10 |
| Cn1c(=O)c(-c2ccccc2)cc2c(N)nc(Nc3ccccc3)nc21 [Example 50, 4-amino-8-methyl-6-phenyl-2-(phenylamino)pyrido[2,3-d]pyrimidine-7(8H)-one] | < 1 | – | 10 to 25 |
| Cn1c(=O)c(-c2c(F)cccc2C(F)(F)F)cc2c(N)nc(Nc3ccccc3)nc21 [Example 51, 4-amino-6-(2-fluoro-6-(trifluoromethyl)phenyl)-8-methyl-2-(phenylamino) pyrido[2,3-d]pyrimidine-7(8H)-one] | 1 to 5 | – | < 10 |
| Cn1c(=O)c(-c2c(Cl)cccc2Cl)cc2c(N)nc(N)nc21 [Example 52] | 5 to 22 | ≥ 25 | – |
| Cn1c(=O)c(-c2c(Cl)cccc2Cl)cc2cnc(Nc3ccccc3)nc21 [Example 53, 6-(2,6-dichlorophenyl)-8-methyl-2-(phenylamino)pyrido[2,3-d]pyrimidine-7(8H)-one] | < 1 | – | < 10 |
